Like-named read-outs stand apart in the source and are kept apart here. Marks after values point to notes of the source that are not given here.
How the values were obtained:
[1] = system: rat collagen induced arthritis (rCIA) paw swelling
[2] = system: OPM-2 human multiple myeloma xenograft tumors; assay: animal or person; conditions: Mus musculus; for change in vivo at 0.5 mg/kg / inhibition in vivo at 0.5 mg/kg: 0.5 mg/kg/day; for change in vivo at 1 mg/kg / inhibition in vivo at 1 mg/kg: 1 mg/kg/day
[3] = Rat liver microsome stability assay; assay type: in vitro ADME; conditions: rat liver microsomes (male Sprague-Dawley), 0.5 μM test compound, 0.25 mg/mL microsomal protein, pH 7.4, 37° C.; read-out: Stability in rat liver microsomes (t1/2 in minutes)
[4] = Human liver microsome stability assay; assay type: in vitro ADME; conditions: both sexes, human, microsomes, pH 7.4
[5] = system: rat collagen induced arthritis (rCIA) paw swelling; assay: animal or person; conditions: po, read-out: ED50, inhibition of inflammation in the arthritic paw
[6] = system: MX-1 human breast cancer xenograft tumors; assay: Xenograft tumor growth inhibition assay, MX-1; assay type: in vivo, mouse
[7] = system: breast cancer cell line MX-1; assay: MX-1 cell line proliferation assay; assay type: cell-based, human; conditions: Homo sapiens, MX1, 72 h; MX-1 cells, 3-day proliferation, Cell Titer Glo; read-out: Cellular proliferation: EC50
[8] = system: MV4-11 human cancer cell xenograft; assay: Xenograft efficacy study, MV4-11; assay type: in vivo, mouse; conditions: PO, QDx21, vehicle D
[9] = Mouse liver microsome stability assay; assay type: in vitro ADME; conditions: male, CD1, mouse, microsomes, pH 7.4
[10] = system: SKM1 human cancer cell xenograft; assay: Xenograft efficacy study, SKM1; assay type: in vivo, mouse; conditions: PO, QDx21, vehicle A
[11] = system: LPS induced IL-6 production; assay: LPS (lipopolysaccharide) induced IL-6 production mouse assay; assay type: in vivo; conditions: Mus musculus, read-out: Inhibition of LPS induced IL-6 production in Mice, % inhibition at 3 mg/kg; 3 mg/kg oral, 1 h before LPS; serum IL-6 2 h after LPS
[12] = target: human BRD4 first bromodomain (BDI_K57-E168) (Homo sapiens (Human), UniProt O60885); assay: TR-FRET bromodomain binding assay, BRD4 first bromodomain
[13] = system: HT1080 human cancer cell xenograft; assay: Xenograft efficacy study, HT1080; assay type: in vivo, mouse; conditions: PO, QDx14, vehicle H
[14] = OPM-2, po, read-out: % TGI (tumor growth inhibition), OPM-2, PO, QDx21, vehicle A
[15] = MX-1, 0.3 mg/kg/day, PO, QD, vehicle F
[16] = MX-1, 1 mg/kg/day, PO, QD, vehicle F
[17] = MX-1, 3 mg/kg/day, PO, QD, vehicle F

For CCS(=O)(=O)Nc1ccc(Oc2ccc(F)cc2F)c(-c2cn(C)c(=O)c3[nH]ccc23)c1 [Example 36, N-[4-(2,4-difluorophenoxy)-3-(6-methyl-7-oxo-6,7-dihydro-1H-pyrrolo[2,3-c]pyridin-4-yl)phenyl]ethanesulfonamide], which “maximum plasma concentration at the ED50” value ([1]; female, Lewis, rat, in vivo) is on record?
The value was 0.0068 µg/mL.

What about the “maximum plasma concentration at the ED80” value ([1]; female, Lewis, rat, in vivo) of the same molecule?
The value was 0.0223 µg/mL.

What about the “AUC of Paw Swelling, MEAN” value ([1]; rCIA, dosed at 0.03 mg/kg orally once daily day 10-17) of the same molecule?
Its value is 4.19 mL·days.

What about the “AUC of Paw Swelling, MEAN” value ([1]; rCIA, dosed at 0.1 mg/kg orally once daily day 10-17) of the same molecule?
The value was 3.66* ml-day.

And the “AUC of Paw Swelling, MEAN” value ([1]; rCIA, dosed at 0.3 mg/kg orally once daily day 10-17)?
The value was 1.84** ml-day.

And the “AUC of Paw Swelling, MEAN” value ([1]; rCIA, dosed at 1.0 mg/kg orally once daily day 10-17)?
The value was 0.70** ml-day.

And the “ED80, inhibition of inflammation in the arthritic paw” value ([1]; rCIA, oral once daily)?
The value was 0.69 mg/kg.

And the change in vivo at 0.5 mg/kg ([2]; OPM-2, ip, read-out: % TGD (tumor growth delay), OPM-2, IP, QDx21, vehicle F)?
Its change in vivo at 0.5 mg/kg is 52%.

What about the change in vivo at 1 mg/kg ([2]; OPM-2, ip, read-out: % TGD (tumor growth delay), OPM-2, IP, Q4DX3, vehicle F) of the same molecule?
The change in vivo at 1 mg/kg was 80%.

What about the inhibition in vivo at 0.5 mg/kg ([2]; OPM-2, ip, read-out: % TGI (tumor growth inhibition), OPM-2, IP, QDx21, vehicle F) of the same molecule?
The inhibition in vivo at 0.5 mg/kg was 49%.

What about the inhibition in vivo at 1 mg/kg ([2]; OPM-2, ip, read-out: % TGI (tumor growth inhibition), OPM-2, IP, Q4DX3, vehicle F) of the same molecule?
Its inhibition in vivo at 1 mg/kg is 61%.

And the inhibition in vivo at 1 mg/kg ([2]; OPM-2, iv, read-out: % TGI (tumor growth inhibition), OPM-2, IV, Q4Dx3, vehicle C)?
Its inhibition in vivo at 1 mg/kg is 69%.

What about the inhibition in vivo at 3 mg/kg ([2]; OPM-2, po, 744 h, read-out: % TGI (tumor growth inhibition), OPM-2 xenograft, 3 mg/kg/day PO, QDx14, based on day 31) of the same molecule?
Its inhibition in vivo at 3 mg/kg is 90%.

What about the change in vivo at 0.5 mg/kg ([2]; OPM-2, po, read-out: % TGD (tumor growth delay), OPM-2, PO, QDx21, vehicle A) of the same molecule?
Its change in vivo at 0.5 mg/kg is 101%.

What about the change in vivo at 1 mg/kg ([2]; OPM-2, po, read-out: % TGD (tumor growth delay), OPM-2, PO, BIDx21, vehicle A) of the same molecule?
The change in vivo at 1 mg/kg was 140%.

What about the change in vivo at 3 mg/kg ([2]; OPM-2, po, read-out: % TGD (tumor growth delay), OPM-2, 3 mg/kg/day, PO, QDx14, vehicle A) of the same molecule?
Its change in vivo at 3 mg/kg is 21%.

And the change in vivo at 3 mg/kg ([2]; OPM-2, po, read-out: % TGD (tumor growth delay), OPM-2, 3 mg/kg/day, PO, QDx21, vehicle A)?
The change in vivo at 3 mg/kg was 131%.

And the change in vivo at 6 mg/kg ([2]; OPM-2, po, read-out: % TGD (tumor growth delay), OPM-2, 6 mg/kg/day, PO, Q2D x21 d, vehicle A)?
The change in vivo at 6 mg/kg was 84%.

And the change in vivo at 7 mg/kg ([2]; OPM-2, po, read-out: % TGD (tumor growth delay), OPM-2, 7 mg/kg/day, PO, QD(3 on 4 off)x3, vehicle A)?
Its change in vivo at 7 mg/kg is 97%.

What about the change in vivo at 10.5 mg/kg ([2]; OPM-2, po, read-out: % TGD (tumor growth delay), OPM-2, 10.5 mg/kg/day, PO, QD(2 on 5 off)x3, vehicle A) of the same molecule?
The change in vivo at 10.5 mg/kg was 94%.

And the change in vivo at 3 mg/kg ([2]; OPM-2, po, read-out: % TGD (tumor growth delay), OPM-2 xenograft, 3 mg/kg/day PO, QDx14, endpoint of 1000 mm^3)?
The change in vivo at 3 mg/kg was 78%.

What about the inhibition in vivo at 0.5 mg/kg [2, 14] of the same molecule?
The inhibition in vivo at 0.5 mg/kg was 75%.

And the inhibition in vivo at 1 mg/kg ([2]; OPM-2, po, read-out: % TGI (tumor growth inhibition), OPM-2, PO, BIDx21, vehicle A)?
Its inhibition in vivo at 1 mg/kg is 74%.

What about the inhibition in vivo at 1 mg/kg [2, 14] of the same molecule?
Its inhibition in vivo at 1 mg/kg is 75%.

And the inhibition in vivo at 3 mg/kg ([2]; OPM-2, po, read-out: % TGI (tumor growth inhibition), OPM-2, 3 mg/kg/day, PO, QDx14, vehicle A)?
The inhibition in vivo at 3 mg/kg was 90%.

And the inhibition in vivo at 3 mg/kg ([2]; OPM-2, po, read-out: % TGI (tumor growth inhibition), OPM-2, 3 mg/kg/day, PO, QDx21, vehicle A)?
Its inhibition in vivo at 3 mg/kg is 88%.

What about the inhibition in vivo at 6 mg/kg ([2]; OPM-2, po, read-out: % TGI (tumor growth inhibition), OPM-2, 6 mg/kg/day, PO, Q2D x21 d, vehicle A) of the same molecule?
Its inhibition in vivo at 6 mg/kg is 82%.

And the inhibition in vivo at 7 mg/kg ([2]; OPM-2, po, read-out: % TGI (tumor growth inhibition), OPM-2, 7 mg/kg/day, PO, QD(3 on 4 off)x3, vehicle A)?
Its inhibition in vivo at 7 mg/kg is 81%.

What about the inhibition in vivo at 10.5 mg/kg ([2]; OPM-2, po, read-out: % TGI (tumor growth inhibition), OPM-2, 10.5 mg/kg/day, PO, QD(2 on 5 off)x3, vehicle A) of the same molecule?
Its inhibition in vivo at 10.5 mg/kg is 75%.

What about the half-life at 0.5 μM [3] of the same molecule?
The half-life at 0.5 μM was over 2 h.

What about the half-life at 0.5 μM [4] of the same molecule?
The half-life at 0.5 μM was over 2 h.

And the ED50 [5]?
Its ED50 is 0.21 mg/kg.

And the “% TGD (tumor growth delay)” value [6, 15]?
Its value is 40%.

And the “% TGI (tumor growth inhibition)” value [6, 15]?
The value was 43** %.

And the “% removed from study” value [6, 15]?
Its value is 0%.

And the “% TGI (tumor growth inhibition)” value [6, 16]?
Its value is 60*** %.

And the “% removed from study” value [6, 16]?
The value was 0%.

What about the “% TGI (tumor growth inhibition)” value [6, 17] of the same molecule?
Its value is 76*** %.

And the “% removed from study” value [6, 17]?
The value was 0%.

And the “% TGI (tumor growth inhibition)” value ([6]; MX-1 xenograft, 0.3 mg/kg/day PO, QDx14, based on day 27)?
The value was 43** %.

What about the “% TGI (tumor growth inhibition)” value ([6]; MX-1 xenograft, 1 mg/kg/day PO, QDx14, based on day 27) of the same molecule?
Its value is 60*** %.

What about the “% TGI (tumor growth inhibition)” value ([6]; MX-1 xenograft, 3 mg/kg/day PO, QDx14, based on day 27) of the same molecule?
Its value is 76*** %.

And the EC50 [7]?
Its EC50 is 17.4 nM.

What about the “% TGD (tumor growth delay)” value ([8]; 0.2 mg/kg/day) of the same molecule?
The value was 16*** %.

What about the “% TGI (tumor growth inhibition)” value ([8]; 0.2 mg/kg/day) of the same molecule?
The value was 22* %.

And the “% removed from study” value ([8]; 0.2 mg/kg/day)?
Its value is 0%.

And the “% TGD (tumor growth delay)” value ([8]; 2 mg/kg/day)?
The value was 94* %.

And the “% TGI (tumor growth inhibition)” value ([8]; 2 mg/kg/day)?
The value was 81*** %.

What about the “% removed from study” value ([8]; 2 mg/kg/day) of the same molecule?
Its value is 0%.

And the half-life at 0.5 μM [9]?
Its half-life at 0.5 μM is 0.683 h.

And the “% TGD (tumor growth delay)” value ([10]; 0.2 mg/kg/day)?
Its value is 93%.

What about the “% TGI (tumor growth inhibition)” value ([10]; 0.2 mg/kg/day) of the same molecule?
The value was 41* %.

And the “% removed from study” value ([10]; 0.2 mg/kg/day)?
Its value is 0%.

What about the “% TGD (tumor growth delay)” value ([10]; 2 mg/kg/day) of the same molecule?
Its value is 721*** %.

What about the “% TGI (tumor growth inhibition)” value ([10]; 2 mg/kg/day) of the same molecule?
Its value is 86** %.

And the “% removed from study” value ([10]; 2 mg/kg/day)?
The value was 0%.

And the inhibition in vivo at 3 mg/kg [11]?
Its inhibition in vivo at 3 mg/kg is 78%.

What about the Ki [12] of the same molecule?
Its Ki is 3.5 nM.

What about the “% TGD (tumor growth delay)” value ([13]; 0.3 mg/kg/day) of the same molecule?
The value was −1%.

What about the “% TGI (tumor growth inhibition)” value ([13]; 0.3 mg/kg/day) of the same molecule?
The value was 26%.

And the “% removed from study” value ([13]; 0.3 mg/kg/day)?
The value was 30%.

What about the “% TGD (tumor growth delay)” value ([13]; 1 mg/kg/day) of the same molecule?
Its value is 3%.

What about the “% TGI (tumor growth inhibition)” value ([13]; 1 mg/kg/day) of the same molecule?
Its value is 41* %.

And the “% removed from study” value ([13]; 1 mg/kg/day)?
The value was 10%.

And the “% TGD (tumor growth delay)” value ([13]; 3 mg/kg/day)?
The value was 46*** %.

What about the “% TGI (tumor growth inhibition)” value ([13]; 3 mg/kg/day) of the same molecule?
The value was 47** %.

And the “% removed from study” value ([13]; 3 mg/kg/day)?
Its value is 10%.

From US9296741B2, “Bromodomain inhibitors” (priority 2012, dated 2016)
